Molecular target: MAPKAPK2 (Homo sapiens, UniProt P49137)
Experiment: MK2 Enzymatic Assay
Type: biochemical
Settings: 0.5 nM MAPKAPK2, 3 μM ATP, 2 μM Ser/Thr4 peptide, 23° C., values given as concentration bins
How it was run: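 MAPKAPK2 (2× stock 1 nM) and peptide substrate (2× 4 μM) were preincubated 20 min, then started with ATP (2× stock 6 μM) for 120 min. After 120 min development, coumarin/fluorescein emission ratio gave percent phosphorylation against 0% and 100% phosphopeptide controls.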

MAPKAPK2, sequence (P49137 whole entry, species assumed): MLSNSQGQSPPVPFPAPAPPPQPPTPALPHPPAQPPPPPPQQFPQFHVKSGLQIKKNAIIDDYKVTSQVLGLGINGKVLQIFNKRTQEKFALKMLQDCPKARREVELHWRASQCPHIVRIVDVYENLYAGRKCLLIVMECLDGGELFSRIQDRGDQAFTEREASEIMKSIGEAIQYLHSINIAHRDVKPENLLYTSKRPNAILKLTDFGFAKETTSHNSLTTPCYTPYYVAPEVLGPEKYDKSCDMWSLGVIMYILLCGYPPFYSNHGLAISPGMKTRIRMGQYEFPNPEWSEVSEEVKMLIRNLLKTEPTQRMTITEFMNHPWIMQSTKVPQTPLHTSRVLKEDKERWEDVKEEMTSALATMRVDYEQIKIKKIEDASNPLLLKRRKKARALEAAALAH

IC50 | Compound
< 50 nM | O[C@H]1CN(c2ccc3c(c2)Cn2cc(-c4ccc(F)cc4)cc2-c2nccn2-3)C[C@@H]1CNC1CC1 [Compound 473, (3R,4S)-4-((cyclopropylamino)methyl)-1-(12-(4-fluorophenyl)-9H-benzo[e]imidazo[2,1-c]pyrrolo[1,2-a][1,4]diazepin-7-yl)pyrrolidin-3-ol]
< 50 nM | CNC[C@@H]1CN(c2ccc3c(c2)Cn2cc(-c4ccc(F)cc4)cc2-c2nccn2-3)C[C@@H]1F [Compound 474, 1-((3R,4R)-4-fluoro-1-(12-(4-fluorophenyl)-9H-benzo[e]imidazo[2,1-c]pyrrolo[1,2-a][1,4]diazepin-7-yl)pyrrolidin-3-yl)-N-methylmethanamine]
< 50 nM | CN(C)C[C@@H]1CN(c2ccc3c(c2)Cn2cc(-c4ccc(F)cc4)cc2-c2nccn2-3)C[C@@H]1F [Compound 475, 1-((3R,4R)-4-fluoro-1-(12-(4-fluorophenyl)-9H-benzo[e]imidazo[2,1-c]pyrrolo[1,2-a][1,4]diazepin-7-yl)pyrrolidin-3-yl)-N,N-dimethylmethanamine]
100 to 200 nM | O=C(O)CN1CC2(CCN(c3ccc4c(c3)Cn3cc(-c5ccc(F)cc5)cc3-c3nccn3-4)C2)C1 [Compound 478, 2-(6-(12-(4-fluorophenyl)-9H-benzo[e]imidazo[2,1-c]pyrrolo[1,2-a][1,4]diazepin-7-yl)-2,6-diazaspiro[3.4]octan-2-yl)acetic acid]
100 to 200 nM | CC(C)(NCC1CCN(c2ccc3c(c2)Cn2cc(-c4ccc(F)cc4)cc2-c2nccn2-3)C1)C(=O)O (stereo not shown) [Compound 479, 2-(((1-(12-(4-fluorophenyl)-9H-benzo[e]imidazo[2,1-c]pyrrolo[1,2-a][1,4]diazepin-7-yl)pyrrolidin-3-yl)methyl)amino)-2-methylpropanoic acid]
50 to 100 nM | O=C(O)C1CCN(CC2CCN(c3ccc4c(c3)Cn3cc(-c5ccc(F)cc5)cc3-c3nccn3-4)C2)CC1 (stereo not shown) [Compound 480, 1-((1-(12-(4-fluorophenyl)-9H-benzo[e]imidazo[2,1-c]pyrrolo[1,2-a][1,4]diazepin-7-yl)pyrrolidin-3-yl)methyl)piperidine-4-carboxylic acid]
200 to 1000 nM | O=C1N[C@@H]2CN(c3ccc4c(c3)Cn3cc(-c5ccc(F)cc5)cc3-c3nccn3-4)C[C@@H]2O1 [Compound 481, (3aR,6aS)-5-(12-(4-fluorophenyl)-9H-benzo[e]imidazo[2,1-c]pyrrolo[1,2-a][1,4]diazepin-7-yl)hexahydro-2H-pyrrolo[3,4-d]oxazol-2-one]
< 50 nM | CNC[C@H]1CN(c2ccc3c(c2)Cn2cc(-c4ccc(F)cc4)cc2-c2nccn2-3)C[C@H]1O [Compound 482, (3S,4S)-1-(12-(4-fluorophenyl)-9H-benzo[e]imidazo[2,1-c]pyrrolo[1,2-a][1,4]diazepin-7-yl)-4-((methylamino)methyl)pyrrolidin-3-ol]
< 50 nM | CNC[C@@H]1CN(c2ccc3c(c2)Cn2cc(-c4ccc(F)cc4)cc2-c2nccn2-3)C[C@@H]1O [Compound 483, (3R,4R)-1-(12-(4-fluorophenyl)-9H-benzo[e]imidazo[2,1-c]pyrrolo[1,2-a][1,4]diazepin-7-yl)-4-((methylamino)methyl)pyrrolidin-3-ol]
50 to 100 nM | OC[C@H]1CN(c2ccc3c(c2)Cn2cc(-c4ccc(F)cc4)cc2-c2nccn2-3)C[C@@H]1O [Compound 484, (3R,4R)-1-(12-(4-fluorophenyl)-9H-benzo[e]imidazo[2,1-c]pyrrolo[1,2-a][1,4]diazepin-7-yl)-4-(hydroxymethyl)pyrrolidin-3-ol]
100 to 200 nM | OC[C@@H]1CN(c2ccc3c(c2)Cn2cc(-c4ccc(F)cc4)cc2-c2nccn2-3)C[C@H]1O [Compound 485, (3S,4S)-1-(12-(4-fluorophenyl)-9H-benzo[e]imidazo[2,1-c]pyrrolo[1,2-a][1,4]diazepin-7-yl)-4-(hydroxymethyl)pyrrolidin-3-ol]
< 50 nM | NCCC1CCN(c2ccc3c(c2)Cn2cc(-c4ccc(F)cc4)cc2-c2nccn2-3)C1 (stereo not shown) [Compound 486, 2-(1-(12-(4-fluorophenyl)-9H-benzo[e]imidazo[2,1-c]pyrrolo[1,2-a][1,4]diazepin-7-yl)pyrrolidin-3-yl)ethanamine]
< 50 nM | CNCCC1CCN(c2ccc3c(c2)Cn2cc(-c4ccc(F)cc4)cc2-c2nccn2-3)C1 (stereo not shown) [Compound 487, 2-(1-(12-(4-fluorophenyl)-9H-benzo[e]imidazo[2,1-c]pyrrolo[1,2-a][1,4]diazepin-7-yl)pyrrolidin-3-yl)-N-methylethanamine]
< 50 nM | CN(C)CCC1CCN(c2ccc3c(c2)Cn2cc(-c4ccc(F)cc4)cc2-c2nccn2-3)C1 (stereo not shown) [Compound 488, 2-(1-(12-(4-fluorophenyl)-9H-benzo[e]imidazo[2,1-c]pyrrolo[1,2-a][1,4]diazepin-7-yl)pyrrolidin-3-yl)-N,N-dimethylethanamine]
50 to 100 nM | NC[C@H]1CCN(c2ccc3c(c2)Cn2cc(-c4ccc(F)cc4)cc2-c2ncnn2-3)C1 [Compound 496, (R)-(1-(12-(4-fluorophenyl)-9H-benzo[e]pyrrolo[1,2-a][1,2,4]triazolo[5,1-c][1,4]diazepin-7-yl)pyrrolidin-3-yl)methanamine]
< 50 nM | CNC[C@H]1CN(c2ccc3c(c2)Cn2cc(-c4ccc(F)cc4)cc2-c2ncnn2-3)C[C@H]1F [Compound 497, 1-((3S,4S)-4-fluoro-1-(12-(4-fluorophenyl)-9H-benzo[e]pyrrolo[1,2-a][1,2,4]triazolo[5,1-c] [1,4]diazepin-7-yl)pyrrolidin-3-yl)-N-methylmethanamine]
< 50 nM | CN(C)C[C@H]1CN(c2ccc3c(c2)Cn2cc(-c4ccc(F)cc4)cc2-c2ncnn2-3)C[C@H]1F [Compound 498, 1-((3S,4S)-4-fluoro-1-(12-(4-fluorophenyl)-9H-benzo[e]pyrrolo[1,2-a][1,2,4]triazolo[5,1-c][1,4]diazepin-7-yl)pyrrolidin-3-yl)-N,N-dimethylmethanamine]
< 50 nM | CNC[C@@H]1CN(c2ccc3c(c2)Cn2cc(-c4ccc(F)cc4)cc2-c2ncnn2-3)C[C@@H]1F [Compound 499, 1-((3R,4R)-4-fluoro-1-(12-(4-fluorophenyl)-9H-benzo[e]pyrrolo[1,2-a][1,2,4]triazolo[5,1-c] [1,4]diazepin-7-yl)pyrrolidin-3-yl)-N-methylmethanamine]
100 to 200 nM | CN(C)C[C@@H]1CN(c2ccc3c(c2)Cn2cc(-c4ccc(F)cc4)cc2-c2ncnn2-3)C[C@@H]1F [Compound 500, 1-((3R,4R)-4-fluoro-1-(12-(4-fluorophenyl)-9H-benzo[e]pyrrolo[1,2-a][1,2,4]triazolo[5,1-c] [1,4]diazepin-7-yl)pyrrolidin-3-yl)-N,N-dimethylmethanamine]
< 50 nM | CC1c2cc(N3C[C@@H](CN(C)C)[C@H](O)C3)ccc2-n2ccnc2-c2cc(-c3ccc(F)cc3)cn21 (stereo partly drawn) [Compound 507, (3S,4R)-4-((dimethylamino)methyl)-1-(12-(4-fluorophenyl)-9-methyl-9H-benzo[e]imidazo[2,1-c]pyrrolo[1,2-a][1,4]diazepin-7-yl)pyrrolidin-3-ol]
< 50 nM | C[C@@H]1c2cc(N3C[C@@H](CN(C)C)[C@H](O)C3)ccc2-n2ccnc2-c2cc(-c3ccc(F)cc3)cn21 [Compound 508, (3S,4R)-4-((dimethylamino)methyl)-1-((R)-12-(4-fluorophenyl)-9-methyl-9H-benzo[e]imidazo[2,1-c]pyrrolo[1,2-a][1,4]diazepin-7-yl)pyrrolidin-3-ol]
< 50 nM | C[C@H]1c2cc(N3C[C@@H](CN(C)C)[C@H](O)C3)ccc2-n2ccnc2-c2cc(-c3ccc(F)cc3)cn21 [Compound 509, (3S,4R)-4-((dimethylamino)methyl)-1-((S)-12-(4-fluorophenyl)-9-methyl-9H-benzo[e]imidazo[2,1-c]pyrrolo[1,2-a][1,4]diazepin-7-yl)pyrrolidin-3-ol]
< 50 nM | CN(C)C[C@@H]1CN(c2ccc3c(c2)Cn2cc(-c4ccc(F)cc4)cc2-c2cnnn2-3)C[C@H]1O [Compound 511, (3S,4R)-4-((dimethylamino)methyl)-1-(5-(4-fluorophenyl)-8H-benzo[e]pyrrolo[1,2-a][1,2,3]triazolo[5,1-c][1,4]diazepin-10-yl)pyrrolidin-3-ol]
500 to 1000 nM | Cc1cc(N2C[C@@H](CN(C)C)[C@H](O)C2)cc2c1-n1ccnc1-c1cc(-c3ccc(F)cc3)cn1C2 [Compound 512, (3S,4R)-4-((dimethylamino)methyl)-1-(12-(4-fluorophenyl)-5-methyl-9H-benzo[e]imidazo[2,1-c]pyrrolo[1,2-a][1,4]diazepin-7-yl)pyrrolidin-3-ol]
100 to 200 nM | Cc1cc(N2C[C@@H](CN(C)C)[C@H](O)C2)cc2c1-n1ncnc1-c1cc(-c3ccc(F)cc3)cn1C2 [Compound 513, (3S,4R)-4-((dimethylamino)methyl)-1-(12-(4-fluorophenyl)-5-methyl-9H-benzo[e]pyrrolo[1,2-a][1,2,4]triazolo[5,1-c][1,4]diazepin-7-yl)pyrrolidin-3-ol]

Source: patent US10562909B2, “Fused quadracyclic compounds, compositions and uses thereof” (Tabomedex Biosciences, LLC, priority 2016, dated 2020)
